The text below walks through data of patent US12435101B2, “Isochroman compound” (Zhejiang Yangli Pharmaceutical Technology Co., Ltd., priority 2020, dated 2025).

pIC50: −log10 of the molar value.

This experiment deals with NCI-H460 cells. The experiment in a line: Antiproliferative activity on NCI-H460 cell line (CellTiter-Glo). The format is cell-based. The settings on record: Homo sapiens; NCI-H460 (lung cancer, high AKR1C3); 2 hours with drug, then 70 hours drug-free. How it is done:
RPMI-1640 medium and penicillin/streptomycin antibiotics were purchased from Vicente, and fetal bovine serum was purchased from Biosera. CellTiter-Glo (Cell Viability Chemiluminescence Detection Reagent) reagent was purchased from Promega. The NCI-H460 cell line was purchased from Nanjing Kebai Biotechnology Co., Ltd. Nivo Multimode Plate Reader (PerkinElmer).
NCI-H460 cells (lung cancer) were seeded in a 96-well plate, 80 μL of cell suspension per well, which contained 4000 NCI-H460 cells. The cell plate was incubated overnight in a carbon dioxide incubator. The compound to be tested was diluted 5-fold to the ninth concentration with a multi-channel pipette, that is, the compound to be tested was diluted from 2 mM to 5.2 nM, and an experiment for the sample assayed in duplicate was set up. 78 μL of medium was added to the middle plate, and 2 μL of the gradient-diluted compound per well was transferred to the middle plate according to the corresponding position, then 20 μL per well was transferred to the cell plate after mixing. […] Another cell plate was prepared, and the signal value was read as the maximum value (Max value in the following equation) on the day of drug addition to participate in data analysis. […] The multimode plate reader was used for readings. […]. […]
On the technique in general: ATP-based viability assays read luminescence as a measure of living cells.

Take `O=[N+]([O-])c1cc2c(cc1Oc1ccccc1F)C(OP(=O)(N1CC1)N1CC1)COC2` (centres unmarked) [Compound 2]: the pIC50 (commonly −log10 of the IC50, conventionally taken in molar units) is 7.67.
In the case of `O=[N+]([O-])c1cc2c(cc1Oc1cccnc1F)C(OP(=O)(N1CC1)N1CC1)COC2` (centres unmarked) [Compound 1] it was 8.42.
